Measurements from US8835629B2, “Anti-cancer agents” (The Walter and Eliza Hall Institute of Medical Research, priority 2010, dated 2014).

Columns and labels:
BaF/3 = experiment: MTT cell proliferation assay, BaF/3; assay type: cell-based; conditions: Mus musculus, BaF3, 72 h; BaF/3 murine B-cell progenitor line; MTT after 3 days of incubation; read-out: IC50, inhibition of proliferation
Procedure: (§1) Compound 2 was tested on a series of cell lines to determine its activity and selectivity (Table 2). Cell proliferation was measured using the MTT assay (for protocol see Example 2.6) after 3 days of incubation with the inhibitor.
(§2) • Cells plated at […] in 100 μl medium+5% FCS (+Adds^1): • Cells incubated overnight: • Titrate inhibitors in a fresh plate in 150 μl medium • Transfer 100 μl titrated compounds to matching wells of the cell plate. • Incubate a further 4 days: • Add 10 μl MTS^2 or MTT^3 for 1.5 to 2 hours and read on Multiscanner (wavelengths 492/690) ^1 Additives for culture of LIM cell lines: 10 μM thioglycerol, 0.025 U/ml insulin, 1 μg/ml hydrocortisone. ^2 3-(4,5-dimethylthiazol-2-yl)-5-(3-carboxymethoxyphenyl)-2-(4-sulfophenyl)-2H-tetrazolium. ^3 3-(4,5-Dimethylthiazol-2-yl)-2,5-diphenyltetrazolium bromide
(§3) Cells are trypsinized and washed ×2 in medium+5% FCS and plate out at 10^4 cells per well in 100 μl.
(§4) Incubate plates o/n 37° C.+5%-10% CO2 incubator.
(§5) Inhibitors are dissolved in DMSO to make 10 mM stocks and titrated in a 96 well plate in duplicate to use as the stock for the test plate. […]
(§6) Read OD of plates on Thermo Multiskan Ex, at 560/690 nm.

MCF-7 = experiment: MTT cell proliferation assay, MCF-7; assay type: cell-based; conditions: MCF7, 72 h; MCF-7 human breast carcinoma; MTT after 3 days of incubation; read-out: IC50, inhibition of proliferation
Procedure: as §1, §2, §3, §4, §5, §6

BaF/3 cells = experiment: Anti-mitotic effects of metabolites recovered from mouse plasma (G2/M, FACS); assay type: cell-based, murine; conditions: BaF3, 24 hr, FACS with Propidium Iodide, concentration of recovered peaks difficult to quantify, read-out: IC50 (G2/M block) of peaks recovered from mouse plasma
Procedure: FIG. 5: Anti-mitotic effects of metabolites recovered from mouse plasma after compound 2 injection. BaF/3 cells were incubated for 24 hr with increasing amounts of each reconstituted peak. Cell cycle distribution was assessed by FACS analysis using Propidium Iodide. The percentage of cells in the G2/M phase of the cell cycle was determined using ModFi
The mouse plasma was fractionated on RP-HPLC and the peaks indicated above were collected. The pooled peak samples were concentrated by lyophilization. A portion of each peak sample was reconstituted in culture media for bioassay (FIG. 5). The remainder was analyzed by LC-MS to confirm the mass and identify the structures.

[1] = Dose escalation in mice (tolerability and toxicity); assay type: in vivo
Procedure: Compound 1 was initially tested for tolerability and toxicity in mice. C57Bl/6 mice (aged 8-12 weeks) were injected subcutaneously with escalating doses of Compound 1 in a constant volume of DMSO. Mice were sacrificed 24 hrs post-injection. There were no adverse effects of doses up to 80 mg/kg within this time-frame. Thus the compound is well tolerated at doses that far exceed the IC50 observed “in vitro”.
These minor skin lesions healed readily within 2-3 days.

LIM 2405 = experiment: MTT cell proliferation assay, LIM 2405; assay type: cell-based; conditions: 72 h; LIM 2405 human colorectal carcinoma; MTT after 3 days of incubation; read-out: IC50, inhibition of proliferation
Procedure: as §1, §2, §3, §4, §5, §6

[2] = Pharmacokinetics of Compound 2 in mouse plasma (RP-HPLC); assay type: in vivo; conditions: mice
Procedure: FIG. 6: Plots of plasma concentrations of compound 2 in mice following a single subcutaneous dose of 50 mg/kg. Each point corresponds to an individual mouse. A: Semi-log plot of calculated concentrations of Peak 1 values. B: Semi-log plot of values including all metabolite peaks. C: Mean and se values comparing Peak 1 only with all peaks.
The pharmacokinetic parameters for Compound 2 were determined following injection into mice.
Mouse blood was collected by cardiac puncture after anaesthesia by CO2 gas. Mice were subsequently euthanized. The blood was transferred to an EDTA tube to prevent clotting and the plasma collected after separation by centrifugation. For each sample 25 μl Plasma Was Added To 75 μl Cold 0.1% TFA (v/v) With 5 μM Hydrocortisone (HC) As an internal standard. These processed samples were stored at −20° C. until required. On thawing they were clarified by centrifugation and the extracts were analyzed on RP-HPLC.
Each 100 μl plasma extract was separated on a Zorbax SB-C18, 2.1×150 mm, 5μ column using a linear 50 min gradient of acetonitrile in 0.1% (v/v) TFA at a flow rate of 0.1 ml per minute and a column temperature of 45° C. Detection was at 250 nm.
The concentration of drug in the plasma was determined by the internal standard method of calibration by comparing the ratios of drug to HC peak areas relative to the known standards. Plasma concentrations of compound 2 in the mice from one pharmacokinetics experiment are plotted in FIG. 6

SW 480 = experiment: MTT cell proliferation assay, SW 480; assay type: cell-based; conditions: SW480, 72 h; SW 480 human colorectal carcinoma; MTT after 3 days of incubation; read-out: IC50, inhibition of proliferation
Procedure: as §1, §2, §3, §4, §5, §6

COc1ccc(CNc2nc(NCc3ccc(CN)cc3)nc(NN3CC(=O)NC3=O)n2)cc1 (single isomer, unassigned) [Compound 2, 1-[4-(4-aminomethyl-benzylamino)-6-(4-methoxybenzylamino)-{1,3,5}-triazin-2-yl-amino]-imidazolidine-2,4-dione]
IC50 (BaF/3): 30 nM | IC50 (MCF-7): 10 nM | IC50 (BaF/3 cells): 100 nM | Time for healing of minor skin lesions ([1]; BALB/c nude, mouse, in vivo, 20 mg/kg): 2 to 3 days | Effect at injection site ([1]; at 21.5 and 64.5 mg/kg): indications of skin thinning at the injection site in some mice | Doses with no adverse effects in outward health or behaviour ([1]; mice, for 4 days): up to 64.5 mg/kg | Skin effect in BALB/c nude mice ([1]; mouse, in vivo, 20 mg/kg): some skin lesions | IC50 (LIM 2405): 30 nM | Time therapeutically significant concentrations are maintained in the serum [2]: up to 10 hr | Plateau concentration in the blood stream ([2]; 50 mg/kg in aqueous solution, single subcutaneous dose): 60 µM | Level remaining in the blood stream for 6-10 hours ([2]; 50 mg/kg in aqueous solution, for 6-10 hours): up to 6 μM | half-life ([2]; mouse, plasma, subcutaneous, 50 mg/kg in aqueous solution, read-out: Elimination half-life (converted)): ~1.5 h | IC50 (SW 480): 30 nM
